Assays:
Format in all cases: in vivo
[1] = tested on: Echinochloa crus-galli (ECHCG); experiment: Pre-emergence herbicidal glasshouse test on Echinochloa crus-galli; conditions: pre-emergence, 1000 g/h, evaluated after 13 days
How it was run: (§1)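 Scored on a five-point scale (1 = 0-19% to 5 = 80-100% damage) 13 days after treatment. Application rate 1000 g/h in acetone/water (50:50) containing 0.5% Tween 20, sprayed one day post-sowing for pre-emergence or eight days for post-emergence; glasshouse at 24/16° C, 14 h light, 65% humidity.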

[2] = tested on: Ipomoea hederacea (IPOHE); experiment: Pre-emergence herbicidal glasshouse test on Ipomoea hederacea; conditions: pre-emergence, 1000 g/h, evaluated after 13 days
How it was run: as §1

Solanum nigrum (SOLNI) [3] = experiment: Post-emergence herbicidal glasshouse test on Solanum nigrum; conditions: post-emergence, 1000 g/h, evaluated after 13 days
How it was run: as §1

Setaria faberi (SETFA) [4] = experiment: Post-emergence herbicidal glasshouse test on Setaria faberi; conditions: post-emergence, 1000 g/h, evaluated after 13 days
How it was run: as §1

[5] = tested on: Ipomoea hederacea (IPOHE); experiment: Post-emergence herbicidal glasshouse test on Ipomoea hederacea; conditions: post-emergence, 1000 g/h, evaluated after 13 days
How it was run: as §1

[6] = tested on: Amaranthus retoflexus (AMARE); experiment: Pre-emergence herbicidal glasshouse test on Amaranthus retoflexus; conditions: pre-emergence, 1000 g/h, evaluated after 13 days
How it was run: as §1

Setaria faberi (SETFA) [7] = experiment: Pre-emergence herbicidal glasshouse test on Setaria faberi; conditions: pre-emergence, 1000 g/h, evaluated after 13 days
How it was run: as §1

[8] = tested on: Amaranthus retoflexus (AMARE); experiment: Post-emergence herbicidal glasshouse test on Amaranthus retoflexus; conditions: post-emergence, 1000 g/h, evaluated after 13 days
How it was run: as §1

Solanum nigrum (SOLNI) [9] = experiment: Pre-emergence herbicidal glasshouse test on Solanum nigrum; conditions: pre-emergence, 1000 g/h, evaluated after 13 days
How it was run: as §1

[10] = tested on: Alopecurus myosuroides (ALOMY); experiment: Post-emergence herbicidal glasshouse test on Alopecurus myosuroides; conditions: post-emergence, 1000 g/h, evaluated after 13 days
How it was run: as §1

[11] = tested on: Echinochloa crus-galli (ECHCG); experiment: Post-emergence herbicidal glasshouse test on Echinochloa crus-galli; conditions: post-emergence, 1000 g/h, evaluated after 13 days
How it was run: as §1

[12] = tested on: Alopecurus myosuroides (ALOMY); experiment: Pre-emergence herbicidal glasshouse test on Alopecurus myosuroides; conditions: pre-emergence, 1000 g/h, evaluated after 13 days
How it was run: as §1

| Compound | PRE Application ECHCG herbicidal damage (five point scale) [1] | PRE Application IPOHE herbicidal damage (five point scale) [2] | POST Application SOLNI herbicidal damage (five point scale) (Solanum nigrum (SOLNI) [3]) | POST Application SETFA herbicidal damage (five point scale) (Setaria faberi (SETFA) [4]) | POST Application IPOHE herbicidal damage (five point scale) [5] | PRE Application AMARE herbicidal damage (five point scale) [6] | PRE Application SETFA herbicidal damage (five point scale) (Setaria faberi (SETFA) [7]) | POST Application AMARE herbicidal damage (five point scale) [8] | PRE Application SOLNI herbicidal damage (five point scale) (Solanum nigrum (SOLNI) [9]) | POST Application ALOMY herbicidal damage (five point scale) [10] | POST Application ECHCG herbicidal damage (five point scale) [11] | PRE Application ALOMY herbicidal damage (five point scale) [12] | further results |
| --- | --- | --- | --- | --- | --- | --- | --- | --- | --- | --- | --- | --- | --- |
| Cn1ncc(-c2ccc(C#N)cc2S(C)(=O)=O)c(O)c1=O [Compound 1.141] | 5 (5=80-100% damage) | 5 (5=80-100% damage) | 5 (5=80-100% damage) | 5 (5=80-100% damage) | 5 (5=80-100% damage) | 5 (5=80-100% damage) | 5 (5=80-100% damage) | 5 (5=80-100% damage) | 5 (5=80-100% damage) | 5 (5=80-100% damage) | 5 (5=80-100% damage) | 5 (5=80-100% damage) |  |
| Cn1ncc(-c2ccc(C(F)(F)F)nc2Oc2ccccc2)c(O)c1=O [Compound 4.008] | 1 (1=0-19% damage) | 1 (1=0-19% damage) | 5 (5=80-100% damage) | 2 (2=20-39% damage) | 4 (4=60-79% damage) | 5 (5=80-100% damage) | 1 (1=0-19% damage) | 5 (5=80-100% damage) | 1 (1=0-19% damage) | 1 (1=0-19% damage) | 2 (2=20-39% damage) | 1 (1=0-19% damage) |  |
| COc1ccc(-n2cccc(-c3cnn(C)c(=O)c3O)c2=O)cc1 [Compound 9.016] | 1 (1=0-19% damage) | 1 (1=0-19% damage) | 5 (5=80-100% damage) | 3 (3=40-59% damage) | 2 (2=20-39% damage) | 1 (1=0-19% damage) | 1 (1=0-19% damage) | 5 (5=80-100% damage) | 1 (1=0-19% damage) | 3 (3=40-59% damage) | 4 (4=60-79% damage) | 2 (2=20-39% damage) |  |
| CC(C)[S+]([O-])c1ccccc1-c1cnn(C)c(=O)c1O (stereo not drawn) [Compound 1.043] | 1 (1=0-19% damage) | 1 (1=0-19% damage) | 5 (5=80-100% damage) | 4 (4=60-79% damage) | 4 (4=60-79% damage) | 1 (1=0-19% damage) | 1 (1=0-19% damage) | 5 (5=80-100% damage) | 1 (1=0-19% damage) | 2 (2=20-39% damage) | 4 (4=60-79% damage) | 1 (1=0-19% damage) |  |
| Cn1ncc(-n2ccc(C(F)(F)F)c(-c3cccc(F)c3)c2=O)c(O)c1=O [Compound 7.012] | 5 (5=80-100% damage) | 1 (1=0-19% damage) | 5 (5=80-100% damage) | 5 (5=80-100% damage) | 5 (5=80-100% damage) | 5 (5=80-100% damage) | 5 (5=80-100% damage) | 5 (5=80-100% damage) | 5 (5=80-100% damage) | 5 (5=80-100% damage) | 5 (5=80-100% damage) | 5 (5=80-100% damage) |  |
| Cn1ncc(-c2cc(Br)c(Br)cc2S(C)(=O)=O)c(O)c1=O [Compound 1.160] |  |  |  |  |  |  |  |  |  |  |  |  | herbicidal damage, PRE Application ECHCG ([1]; five point scale): 5 (5=80-100% damage); herbicidal damage, PRE Application IPOHE ([2]; five point scale): 2 (2=20-39% damage); herbicidal damage, POST Application SOLNI (Solanum nigrum (SOLNI) [3]; five point scale): 5 (5=80-100% damage); herbicidal damage, POST Application SETFA (Setaria faberi (SETFA) [4]; five point scale): 4 (4=60-79% damage); herbicidal damage, POST Application IPOHE ([5]; five point scale): 5 (5=80-100% damage); herbicidal damage, PRE Application AMARE ([6]; five point scale): 5 (5=80-100% damage); herbicidal damage, PRE Application SETFA (Setaria faberi (SETFA) [7]; five point scale): 1 (1=0-19% damage); herbicidal damage, POST Application AMARE ([8]; five point scale): 5 (5=80-100% damage); herbicidal damage, PRE Application SOLNI (Solanum nigrum (SOLNI) [9]; five point scale): 4 (4=60-79% damage); herbicidal damage, POST Application ALOMY ([10]; five point scale): 3 (3=40-59% damage); herbicidal damage, POST Application ECHCG ([11]; five point scale): 5 (5=80-100% damage); herbicidal damage, PRE Application ALOMY ([12]; five point scale): 1 (1=0-19% damage) |
| C=C(C)c1nn(C)c(=O)c(O)c1-c1ccc(S(C)(=O)=O)c(C2=NOCC2)c1C [Compound 2.023] | 5 (5=80-100% damage) | 4 (4=60-79% damage) | 5 (5=80-100% damage) | 5 (5=80-100% damage) | 5 (5=80-100% damage) | 5 (5=80-100% damage) | 1 (1=0-19% damage) | 5 (5=80-100% damage) | 5 (5=80-100% damage) | 5 (5=80-100% damage) | 5 (5=80-100% damage) | 5 (5=80-100% damage) |  |
| Cn1ncc(-c2cnc(C(F)(F)F)nc2N2CCOCC2)c(O)c1=O [Compound 8.001, 4-hydroxy-2-methyl-5-[4-morpholino-2-(trifluoromethyl)pyrimidin-5-yl]pyridazin-3-one] | 5 (5=80-100% damage) | 3 (3=40-59% damage) | 5 (5=80-100% damage) | 2 (2=20-39% damage) | 5 (5=80-100% damage) | 5 (5=80-100% damage) | 2 (2=20-39% damage) | 5 (5=80-100% damage) | 5 (5=80-100% damage) | 1 (1=0-19% damage) | 5 (5=80-100% damage) | 1 (1=0-19% damage) |  |
| COc1ccc(-c2cnn(C)c(=O)c2O)c(Cl)c1 [Compound 1.103] | 1 (1=0-19% damage) | 1 (1=0-19% damage) | 2 (2=20-39% damage) | 1 (1=0-19% damage) | 1 (1=0-19% damage) | 1 (1=0-19% damage) | 1 (1=0-19% damage) | 1 (1=0-19% damage) | 1 (1=0-19% damage) | 1 (1=0-19% damage) | 1 (1=0-19% damage) | 1 (1=0-19% damage) |  |
| Cn1ncc(-c2ccc(C(F)(F)F)cc2S(=O)(=O)Cc2ccccc2)c(O)c1=O [Compound 2.047] | 5 (5=80-100% damage) | 1 (1=0-19% damage) | 5 (5=80-100% damage) | 3 (3=40-59% damage) | 4 (4=60-79% damage) | 2 (2=20-39% damage) | 1 (1=0-19% damage) | 5 (5=80-100% damage) | 4 (4=60-79% damage) | 3 (3=40-59% damage) | 5 (5=80-100% damage) | 1 (1=0-19% damage) |  |

Source: patent publication US9693556B2, “Herbicidal pyridazinone derivatives” (SYNGENTA LIMITED, priority 2011, dated 2017)
